Biological target: hTREM2 (Homo sapiens, UniProt Q9NZC2)
Experiment: TREM2 activity by cellular Syk phosphorylation (AlphaScreen/AlphaLISA) in TREM2/DAP12-HEK cells, used for Examples 1-305
Format: cell-based
Set-up: expressed in transfected cells
Conditions: HEK293 Cells
Source text: In vitro Measurement of Triggering Receptor Expressed on Myeloid Cells 2 activity using cellular phosphorylation of Spleen Tyrosine Kinase (“Syk”) Assays used for Examples 1-305
Pharmacological measurements of TREM2 signaling through DAP12 were made with TREM2 and DAP12 overexpressing HEK293 cells stable cell lines that had been single-cell cloned (“TREM2/DAP12-HEK”). The readout of the TREM2 signaling utilized Perkin Elmer AlphaScreen/AlphaLISA technology monitoring the phosphorylation levels of the Syk kinase. TREM2/DAP12-HEK cell lines were cultured in DMEM-F12 (Corning 10-092-CM) supplemented with 1X Penicillin/Streptomycin (Corning 30-002-CI), 1X GlutaMAX (Gibco 35050-061), and 10% Fetal Bovine Serum (Life Technologies 10099) referred to as “HEK Culture Medium”. Suspensions of TREM2/DAP12-HEK cells were prepared in HEK Culture Medium and dispensed into 384-well poly-D-lysine coated microplates (Corning 354661) at a density of 20,000 cells/well using a Multidrop Combi peristaltic microplate dispenser (Thermo), 25 μL volume of cell suspension/well. Plates containing cells were then incubated for 20 hours in a humidified cell culture incubator at 37° C. with 5% CO2 (Thermo). After incubation, culture medium was removed from all wells of each microplate and replaced with 20 μL of “Assay Buffer” comprised of DMEM-F12 (Corning 10-092-CM) supplemented with 1X Penicillin/Streptomycin (Corning 30-002-CI) and 0.1% Pluronic F-68 Polyol (MP Biomedical 092750049) using a Bravo 384-well pipette-based liquid handling system (Agilent). Assay Buffer contained diluted test articles (in 1% final DMSO concentration for compounds) or 100 nM anti-human/mouse TREM2 antibody (R&D Systems MAB17291) as a positive control, or 100 nM or rat IgG2B isotype Ab as a negative control (R&D Systems MAB0061). The plates were incubated with test articles and controls for 45 minutes at room temperature and then the medium was aspirated/removed from each well of the plates. A Multidrop Combi peristaltic liquid handler (Thermo) was used to dispense 15 μL/well of “Cell Lysis Immunoassay Buffer”. The Cell Lysis Immunoassay Buffer contained M-PER Mammalian Protein Extraction Reagent (Pierce/ThermoFisher 78505), 1X Halt Phosphatase Inhibitor Cocktail (ThermoFisher #78427), 0.1875 nM anti-phospho-Syk (Tyr525/526) (C87C1) rabbit mAb (Cell Signaling Technologies catalog #2710), and 1.5 nM biotinylated Mouse anti-human Syk (4D10) antibody (BD Biosciences, catalog #624008). Plates were incubated for 1 hour at room temperature after the addition of the Cell Lysis Immunoassay Buffer. The Multidrop Combi liquid handler was used to dispense 15 μL of AlphaScreen Acceptor Bead Solution containing 7.5 μg/mL anti-rabbit IgG (Fc specific) AlphaLISA Acceptor Beads (Perkin Elmer AL104R) in 1X Immunoassay buffer (Perkin Elmer AL000F) to each well of the microplates. The plates were incubated for 2 hours at room temperature. Following the incubation with the AlphaLISA Acceptor Bead Solution, a Multidrop Combi liquid handler (Thermo) was used to dispense 15 μL of AlphaScreen Donor Bead Solution containing 30 μg/mL of AlphaScreen Streptavidin Donor beads (Perkin Elmer 6760002B) in 1X Immunoassay buffer (Perkin Elmer AL000F) to each well of the microplates. Microplates were incubated for 2 hours protected from light sources as the AlphaScreen reagents are light sensitive. Once the final incubation was completed, an AlphaScreen signal was acquired from the donor and acceptor beads using an Envision high throughput multi-modal microplate reader (Perkin Elmer) calibrated to the plate type with the AlphaScreen mirror and filter-set in 384-well mode, 680 nanometer excitation wavelength. The total measurement time per well was 550 milliseconds with a 180 millisecond excitation time. […]

Sequence of hTREM2 (Q9NZC2 19-230): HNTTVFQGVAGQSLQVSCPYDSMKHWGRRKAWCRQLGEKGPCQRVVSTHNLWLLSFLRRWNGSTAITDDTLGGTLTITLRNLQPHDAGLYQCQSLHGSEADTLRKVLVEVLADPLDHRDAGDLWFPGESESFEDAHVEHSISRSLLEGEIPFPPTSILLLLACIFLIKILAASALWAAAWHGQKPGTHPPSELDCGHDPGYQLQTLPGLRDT
Sequence of hTREM2 (O43914 22-113 partner): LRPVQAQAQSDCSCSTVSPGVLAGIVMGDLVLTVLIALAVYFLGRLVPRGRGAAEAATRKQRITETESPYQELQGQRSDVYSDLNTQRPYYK

Structure (SMILES)	EC50	hTREM2 Emax
Cc1cc2c(-c3ccc(Cl)cc3F)nc([C@H]3CCO[C@@H](c4cnn(C5CC5)c4)C3)nc2nc1C (single isomer, unassigned) [Example 199]	≤ 0.05 µM	++++ (Emax>250)
Cc1cc([C@@H]2C[C@@H](c3nc(-c4ccc(F)cc4F)c4nc(C)c(C)nc4n3)CCO2)ccn1 (single isomer, unassigned) [Example 212]	0.5 to 3 µM	++++ (Emax>250)
Cc1cnc2c(-c3ccc(Cl)cc3F)cc([C@@H]3CCO[C@H](c4cnn(C)c4)C3)nc2n1 [Example 271, 8-(4-chloro-2-fluorophenyl)-3-methyl-6-((2S,4R)-2-(1-methyl-1H-pyrazol-4-yl)tetrahydro-2H-pyran-4-yl)pyrido [2,3-b]pyrazine]	3 to 100 µM	+++ (Emax>150 and ≤250)
Cc1cc([C@H]2CN(c3nc(C45CC(C(F)(F)F)(C4)C5)c4ncc(C)nc4n3)CCO2)ccn1 [Example 232, (S)-4-(7-methyl-4-(3-(trifluoromethyl)bicyclo[1.1.1]pentan-1-yl)pteridin-2-yl)-2-(2-methylpyridin-4-yl) morpholine]	≤ 0.05 µM	++ (Emax>100 and ≤150)
Cc1cc([C@H]2CN(c3nc4nc(C)cnc4c([C@H]4C[C@@H](C(F)(F)F)C4)n3)CCO2)ccn1 [Example 15, 7-methyl-2-((2S)-2-(2-methyl-4-pyridinyl)-4-morpholinyl)-4-(cis-3-(trifluoromethyl)cyclobutyl)pteridine]	0.05 to 0.5 µM	++ (Emax>100 and ≤150)
Cc1nc2nc(N3CCO[C@@H]([C@@H]4CCOC4)C3)nc(-c3ccc(F)cc3F)c2nc1C (single isomer, unassigned) [Example 34]	0.5 to 3 µM	+++ (Emax>150 and ≤250)
Cc1nc2nc([C@@H]3CCO[C@@H](c4cnn(C)c4)C3)nc(-c3ccc(Cl)cc3F)c2nc1C [Example 179, 4-(4-chloro-2-fluorophenyl)-6,7-dimethyl-2-((2R,4R)-2-(1-methyl-1H-pyrazol-4-yl)tetrahydro-2H-pyran-4-yl)pteridine]	0.5 to 3 µM	++++ (Emax>250)
Cc1nc2nc([C@@H]3CCO[C@H](c4cnn(C)c4)C3)cc(-c3ccc(Cl)cc3F)c2nc1C [Example 250, 8-(4-chloro-2-fluorophenyl)-2,3-dimethyl-6-((2S,4R)-2-(1-methyl-1H-pyrazol-4-yl)tetrahydro-2H-pyran-4-yl)pyrido[2,3-b]pyrazine]	0.5 to 3 µM	+++ (Emax>150 and ≤250)
Cc1nc2cc([C@@H]3CCO[C@H](c4cnn(C5CC5)c4)C3)nc(-c3ccc(Cl)cc3F)c2nc1C [Example 297, 5-(4-chloro-2-fluorophenyl)-7-((2S,4R)-2-(1-cyclopropyl-1H-pyrazol-4-yl)tetrahydro-2H-pyran-4-yl)-2,3-dimethylpyrido[3,4-b]pyrazine]	3 to 100 µM	–
Cc1cc([C@H]2CN(c3nc(-c4ccc(C(F)(F)F)nc4)c4nc(C)c(C)nc4n3)CCO2)ccn1 [Example 293, (S)-4-(6,7-dimethyl-4-(6-(trifluoromethyl)pyridin-3-yl)pteridin-2-yl)-2-(2-methylpyridin-4-yl)morpholine]	–	+++ (Emax>150 and ≤250)
Cc1nc2nc(C3CCO[C@H](c4cnn(C)c4)C3)nc(-c3ccc(Cl)cc3F)c2nc1C (stereo in doubt) [Example 276, 4-(4-chloro-2-fluorophenyl)-6,7-dimethyl-2-((2S,4R)-2-(1-methyl-1H-pyrazol-4-yl)tetrahydro-2H-pyran-4-yl)pteridine]	0.05 to 0.5 µM	++++ (Emax>250)
Cc1ccc(-c2nc([C@H]3CCO[C@H](c4ccnc(C)c4)C3)nc3nc(C)c(C)nc23)c(F)c1 [Example 286, 4-(2-fluoro-4-methylphenyl)-6,7-dimethyl-2-((2S,4S)-2-(2-methylpyridin-4-yl)tetrahydro-2H-pyran-4-yl)pteridine]	≤ 0.05 µM	+++ (Emax>150 and ≤250)
COC1CN(c2nc(N3CCO[C@@H](c4cnn(C)c4)C3)nc3nc(C)c(C)nc23)C1 [Example 28, 4-(3-methoxy-1-azetidinyl)-6,7-dimethyl-2-((2S)-2-(1-methyl-1H-pyrazol-4-yl)-4-morpholinyl)pteridine]	0.5 to 3 µM	+++ (Emax>150 and ≤250)
Cc1nc2nc([C@@H]3CCO[C@H](c4cnn(C)c4)C3)nc(-c3ccc(Cl)cc3F)c2nc1C (single isomer, unassigned) [Example 177]	0.5 to 3 µM	+++ (Emax>150 and ≤250)
Cc1cc([C@@H]2CN(c3cc4nc(C)ccc4c(-c4ccc(Cl)cc4F)n3)CCO2)ccn1 [Example 240, (R)-4-(5-(4-chloro-2-fluorophenyl)-2-methyl-1,6-naphthyridin-7-yl)-2-(2-methylpyridin-4-yl)morpholine]	3 to 100 µM	++++ (Emax>250)
Cc1nc2nc([C@@H]3CCO[C@H](c4cnn(C)c4)C3)nc(C3CCC(F)(F)CC3)c2nc1C (single isomer, unassigned) [Example 175]	0.5 to 3 µM	++ (Emax>100 and ≤150)

The next lines start with the values.

EC50	hTREM2 Emax	Structure (SMILES)
≤ 0.05 µM	+++ (Emax>150 and ≤250)	Cc1cc([C@H]2CN(c3nc(-c4ccc(C(F)(F)F)nc4)c4nc(C)c(C)nc4n3)CCO2)cnn1 [Example 299, (S)-4-(6,7-dimethyl-4-(6-(trifluoromethyl)pyridin-3-yl)pteridin-2-yl)-2-(6-methylpyridazin-4-yl)morpholine]
≤ 0.05 µM	+++ (Emax>150 and ≤250)	Cc1cc([C@H]2CN(c3nc(-c4ccc(F)cc4F)c4ccc(C)nc4n3)CCO2)ccn1 [Example 93, 4-(2,4-difluorophenyl)-7-methyl-2-((2S)-2-(2-methyl-4-pyridinyl)-4-morpholinyl)pyrido[2,3-d]pyrimidine]
0.5 to 3 µM	+++ (Emax>150 and ≤250)	Cc1cc([C@H]2C[C@H](c3nc(-c4ccc(F)cc4F)c4ccc(C)nc4n3)CCO2)ccn1 [Example 278, 4-(2,4-difluorophenyl)-7-methyl-2-((2R,4R)-2-(2-methylpyridin-4-yl)tetrahydro-2H-pyran-4-yl)pyrido [2,3-d]pyrimidine]
≤ 0.05 µM	+++ (Emax>150 and ≤250)	Cc1cc([C@H]2C[C@@H](c3cc4nc(C)c(C)nc4c(-c4ccc(Cl)cc4F)n3)CCO2)ccn1 (single isomer, unassigned) [Example 218]
0.5 to 3 µM	+++ (Emax>150 and ≤250)	Cc1ccc2c(-c3ccc(Cl)cc3F)nc([C@H]3CCO[C@@H](c4cnn(C)c4)C3)nc2n1 [Example 287, 4-(4-chloro-2-fluorophenyl)-7-methyl-2-((2R,4S)-2-(1-methyl-1H-pyrazol-4-yl)tetrahydro-2H-pyran-4-yl)pyrido[2,3-d] pyrimidine]
≤ 0.05 µM	++++ (Emax>250)	Cc1cc([C@H]2CN(c3cc(-c4ccc(Cl)cc4F)c4nc(C)c(C)nc4c3)CCO2)ccn1 [Example 163, 5-(4-chloro-2-fluorophenyl)-2,3-dimethyl-7-((2S)-2-(2-methyl-4-pyridinyl)-4-morpholinyl) quinoxaline]
0.05 to 0.5 µM	+++ (Emax>150 and ≤250)	Cc1ccc2c(-c3ccc(F)cc3F)nc([C@@H]3CCO[C@H](c4cnn(C)c4)C3)nc2n1 [Example 290, 4-(2,4-difluorophenyl)-7-methyl-2-((2S,4R)-2-(1-methyl-1H-pyrazol-4-yl)tetrahydro-2H-pyran-4-yl)pyrido[2,3-d] pyrimidine]
0.05 to 0.5 µM	++++ (Emax>250)	Cc1ccc2c(-c3ccc(Cl)cc3F)nc(N3CCO[C@@H](c4cnn(C5CC5)c4)C3)cc2n1 [Example 150, 5-(4-chloro-2-fluorophenyl)-7-((2S)-2-(1-cyclopropyl-1H-pyrazol-4-yl)-4-morpholinyl)-2-methyl-1,6-naphthyridine]

From patent publication US11884675B2, “Heterocyclic compounds as triggering receptor expressed on myeloid cells 2 agonists and methods of use” (AMGEN INC., priority 2020, dated 2024)
